Consider 6 compounds from patent US4670444A, “7-amino-1-cyclopropyl-4-oxo-1, 4-dihydro-quinoline-and naphthyridine-3-carboxylic acids and antibacterial agents containing these compounds” (Bayer Aktiengesellschaft, priority 1980, dated 1987).

What all share (assay type): cell-based
Assay [1] relates to Pseudomonas aeruginasa. As to the kind of experiment: Agar dilution test, DST medium. The note with it: 1-2 × 10^3 germs/plate. Background: In agar dilution the substance is mixed into plates at graded concentrations.
Excerpt: (§2) DST (dexhase sensitivity test) medium; 1-2 × 10^3 germs/plate
Assay [2] has as its system Klebsiella 8085. As to the kind of experiment: Agar dilution test, DST medium. Conditions: 1-2 × 10^3 germs/plate.
Excerpt: as §2
Assay [3] concerns E. coli A 261. The assay is described as follows: Agar dilution test, DST medium. The note with it: 1-2 × 10^3 germs/plate.
Excerpt: as §2
Assay [4] deals with Proteus 1017. As to the kind of experiment: Agar dilution test, DST medium. The note with it: 1-2 × 10^3 germs/plate.
Excerpt: as §2
The test system of assay [5] is E. coli Neum. As to the kind of experiment: Agar dilution test, DST medium. Conditions: 1-2 × 10^3 germs/plate.
Excerpt: as §2
The subject of assay [6] is Staphylococcus aureus 133. The assay is described as follows: Agar dilution test, DST medium. The note with it: 1-2 × 10^3 germs/plate.
Excerpt: as §2
For assay [7], the system named is Proteus 8228. As to the kind of experiment: Agar dilution test, Denley multipoint inoculation method. The note with it: read-out: Minimum inhibitory concentrations in an agar dilution test. From the text: (§1) | ^x Denley multipoint inoculation method
Assay [8] relates to Escherichia coli T 7. The assay is described as above. Conditions: T7, read-out: Minimum inhibitory concentrations in an agar dilution test.
Excerpt: as §1

The test system of assay [9] is Pseudomonas 7167. The assay is described as above. Conditions: read-out: Minimum inhibitory concentrations in an agar dilution test.
Excerpt: as §1

Assay [10] deals with Klebsiella 63. Described as above.
Excerpt: as §1

In assay [11] the test system is Escherichia coli 103400. The description is as above.
Excerpt: as §1

In assay [12] the test system is Salmonella 683. Described as above. The note with it: read-out: Minimum inhibitory concentrations in an agar dilution test.
Excerpt: as §1

The subject of assay [13] is Escherichia coli 455/7. The description is as above.
Excerpt: as §1

Where [14] appears, read: Proteus 8228, Denley multipoint inoculation method.
The mark [15] stands for this setting: Klebsiella 63, Denley multipoint inoculation method, read-out: Minimum inhibitory concentrations in an agar dilution test.
The mark [16] stands for this setting: Escherichia coli 103400, Denley multipoint inoculation method, read-out: Minimum inhibitory concentrations in an agar dilution test.
Where [17] appears, read: Escherichia coli 455/7, Denley multipoint inoculation method, read-out: Minimum inhibitory concentrations in an agar dilution test.

Converted amounts (≈) assume the structure as drawn. Read-outs that look alike come from different tables or passages of the source.

Regarding `O=C(O)c1cn(C2CC2)c2cc(N3CCNCC3)ncc2c1=O`, the “antibacterial action in agar dilution test” value (“antibacterial action” for short) in assay [1] is listed as 4; in assay [2], 1; in assay [3], 1; in assay [4], 0.5; in assay [5], 1; in assay [6] it was 8.

On to `CCn1cc(C(=O)O)c(=O)c2ccc(C)nc21` [Nalidixic acid, 1-ethyl-7-methyl-1,8-naphthyrid-4-one-3-carboxylic acid], for which the MIC was determined as 8 µg/mL (≈ 34.4 µM) in [7]; 1 µg/mL (≈ 4.31 µM) in assay [8]; 64 µg/mL (≈ 276 µM) in assay [9]; 4 µg/mL (≈ 17.2 µM) in assay [10] (Klebsiella, 63, read-out: Minimum inhibitory concentrations in an agar dilution test); 2 µg/mL (≈ 8.61 µM) in assay [11] (Escherichia coli, 103400, read-out: Minimum inhibitory concentrations in an agar dilution test); 4 µg/mL (≈ 17.2 µM) in assay [12]. For the same compound, the MIC in [13] (Escherichia coli, 455/7, read-out: Minimum inhibitory concentrations in an agar dilution test) amounted to 256 µg/mL (≈ 1100 µM).

As for `CCn1cc(C(=O)O)c(=O)c2cnc(N3CCNCC3)nc21` [Pipemidic acid, 2-piperazino-8-ethyl-5-oxo-5,8-dihydropyrido 2,3-d pyrimidine-6-carboxylicacid], the MIC in [7] (setting [14]) was found to be 4 µg/mL (≈ 13.2 µM); in assay [8] it was 2 µg/mL (≈ 6.59 µM); in [9] it was 16 µg/mL (≈ 52.7 µM); in assay [10] (setting [15]), 2 µg/mL (≈ 6.59 µM); in [11] (setting [16]), 1 µg/mL (≈ 3.3 µM); in [12], 2 µg/mL (≈ 6.59 µM). In [13] (setting [17]), the MIC is 128 µg/mL (≈ 422 µM).

Take `O=C(O)c1cn(C2CC2)c2cc(N3CCNCC3)c(F)cc2c1=O` [1-cyclopropyl-6-fluoro-1,4-dihydro-4-oxo-7-piperazino-quinoline-3-carboxylic acid]: the “antibacterial action” value was 0.5 in assay [1]; 0.06 in assay [2]; 0.06 in assay [3]; 0.03 in assay [4]; 0.06 in assay [5]; 0.25-0.5 in [6].

Turning to `CN1CCN(c2cc3c(cn2)c(=O)c(C(=O)O)cn3C2CC2)CC1` [Example 1, 7-(4-Methylpiperazino)-1-cyclopropyl-4-oxo-1,4-dihydro-1,6-naphthyridine-3-carboxylic acid], the MIC in assay [7] (setting [14]) amounted to 2 µg/mL (≈ 6.09 µM); in assay [8], 0.25 µg/mL (≈ 0.761 µM); in [9] it was 8 µg/mL (≈ 24.4 µM); in assay [10] (setting [15]), 1 µg/mL (≈ 3.05 µM); in [11] (setting [16]), 0.25 µg/mL (≈ 0.761 µM); in assay [12], 0.5 µg/mL (≈ 1.52 µM). For the same compound, the MIC in [13] (setting [17]) was determined as 128 µg/mL (≈ 390 µM).

For the compound `CCn1cc(C(=O)O)c(=O)c2cc(F)c(N3CCNCC3)cc21`, the “antibacterial action” value in [1] worked out at 1; in assay [2], 0.25; in assay [3], 0.125; in assay [4], 0.06; in [5], 0.25; in assay [6], 1.
